From patent US9630922B2, “3-spiro-7-hydroxamic acid tetralins as HDAC inhibitors” (Forma Therapeutics, Inc., priority 2015, dated 2017)

What follows are compounds tested against T1, HDAC6 (Homo sapiens, UniProt Q9UBN7) (assay: In vitro Histone Deacetylase Assay (enzymatic HDAC6 electrophoretic mobility shift assay)). Conditions: full length human recombinant HDAC6, 1 nM enzyme, 2 μM peptide substrate RHKK(Ac)-NH2, 25° C.; read-out: HDAC6 activity range.
T1 construct: Full length human recombinant HDAC6 protein was expressed in baculoviral system; made in house; host or cells: baculoviral system
T1 sequence (Q9UBN7 1-1215): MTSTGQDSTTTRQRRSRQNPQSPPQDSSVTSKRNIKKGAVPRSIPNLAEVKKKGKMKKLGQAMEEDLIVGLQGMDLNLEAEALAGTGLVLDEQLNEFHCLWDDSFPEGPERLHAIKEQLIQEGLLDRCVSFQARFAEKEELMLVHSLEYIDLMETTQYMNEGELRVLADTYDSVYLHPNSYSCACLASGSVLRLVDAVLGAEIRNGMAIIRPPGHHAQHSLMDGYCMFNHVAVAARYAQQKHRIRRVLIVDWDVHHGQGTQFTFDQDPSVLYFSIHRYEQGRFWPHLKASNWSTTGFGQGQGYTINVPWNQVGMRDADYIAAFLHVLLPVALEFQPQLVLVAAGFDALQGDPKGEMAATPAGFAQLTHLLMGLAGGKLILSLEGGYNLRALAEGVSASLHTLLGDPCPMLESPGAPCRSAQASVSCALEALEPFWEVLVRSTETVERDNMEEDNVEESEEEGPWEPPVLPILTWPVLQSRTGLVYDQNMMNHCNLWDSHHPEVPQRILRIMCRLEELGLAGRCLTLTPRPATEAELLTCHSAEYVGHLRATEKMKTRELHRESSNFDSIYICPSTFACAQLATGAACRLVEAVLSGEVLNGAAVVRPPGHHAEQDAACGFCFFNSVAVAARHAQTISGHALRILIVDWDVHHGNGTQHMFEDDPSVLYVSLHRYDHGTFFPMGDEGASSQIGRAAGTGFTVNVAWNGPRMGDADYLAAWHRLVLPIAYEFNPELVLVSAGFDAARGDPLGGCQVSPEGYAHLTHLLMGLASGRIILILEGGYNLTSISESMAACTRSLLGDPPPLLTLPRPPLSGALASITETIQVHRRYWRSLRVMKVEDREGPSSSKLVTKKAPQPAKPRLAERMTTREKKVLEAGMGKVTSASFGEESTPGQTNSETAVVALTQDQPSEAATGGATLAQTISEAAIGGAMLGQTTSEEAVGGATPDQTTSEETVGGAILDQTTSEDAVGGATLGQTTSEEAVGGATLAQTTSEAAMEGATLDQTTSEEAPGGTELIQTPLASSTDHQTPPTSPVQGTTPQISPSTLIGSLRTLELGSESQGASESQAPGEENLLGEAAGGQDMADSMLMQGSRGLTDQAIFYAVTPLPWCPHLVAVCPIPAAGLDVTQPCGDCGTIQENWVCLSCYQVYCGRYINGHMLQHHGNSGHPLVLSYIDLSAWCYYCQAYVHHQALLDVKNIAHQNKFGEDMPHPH
Format: biochemical
Method: The enzymatic HDAC6 assay was performed using electrophoretic mobility shift assay. Full length human recombinant HDAC6 protein was expressed in baculoviral system and purified by affinity chromatography. The enzymatic reactions were assembled in 384 well plates in a total volume of 25 μL in a reaction buffer composing: 100 mM HEPES, pH7.5, 25 mM KCl, 0.1% bovine serum albumin, 0.01% Triton X-100, 1% DMSO (from compounds) 2 μM of the fluorescently labeled peptide substrate and enzyme. The enzyme was added at a final concentration of 1 nM. The peptide substrate RHKK(Ac)—NH2 was used. The compounds were tested at 12 concentrations spaced by 3× dilution intervals. Negative control samples (0%-inhibition in the absence of inhibitor) and positive control samples (100%-inhibition) were assembled in replicates of four in each assay plate. The reactions were incubated at 25° C. and quenched by the addition of 45 μL of termination buffer (100 mM HEPES, pH 7.5, 0.01% Triton X-100, 0.05% SDS).
The terminated assay plates were analyzed on LabChip® 3000 microfluidic electrophoresis instrument (Perkin Elmer/Caliper Life Sciences). The fluorescence intensity of the electrophoretically separated de-acetylated product and substrate peptide was measured. Activity in each sample was determined as the product to sum ratio (PSR): P/(S+P), where P is the peak height of the product peptide and S is the peak height of the substrate peptide. Percent inhibition (Pinh) is determined using the following equation:
Pinh=(PSR0%−PSRinh)/(PSR0%−PSR100%)*100, where PSRinh is the product sum ratio in the presence of inhibitor, PSR0% is the average product sum ration in the absence of inhibitor and PSR100% is the average product sum ratio in 100%-inhibition control samples. The IC50 values of inhibitors were determined by fitting the %-inhibition curves with 4 parameter dose-response model using XLfit 4 software.
As set forth in Table-31, below, IC50 values are defined as follows: IC50≦0.1 μM (+++); IC50>0.1 μM and ≦0.5 μM (++); IC50>0.5 μM (+).

| Structure (SMILES) | IC50 |
| --- | --- |
| COCCn1c(CN2CC[C@]3(CCc4cc(C(=O)NO)ccc4C3)C2=O)nc2ccccc21 [Compound I-22, (R)-N-hydroxy-1′-((1-(2-methoxyethyl)-1H-benzo[d]imidazol-2-yl)methyl)-2′-oxo-3,4-dihydro-1H-spiro[naphthalene-2,3′-pyrrolidine]-6-carboxamide] | ≤ 100 nM |
| CC(C)N1CC[C@]2(CCc3cc(C(=O)NO)ccc3C2)C1=O [Compound I-24, (R)-N-hydroxy-1′-isopropyl-2′-oxo-3,4-dihydro-1H-spiro[naphthalene-2,3′-pyrrolidine]-6-carboxamide] | ≤ 100 nM |
| O=C(NO)c1ccc2c(c1)CC[C@]1(CCN(c3ccccc3)C1=O)C2 [Compound I-26, (R)-N-hydroxy-2′-oxo-1′-phenyl-3,4-dihydro-1H-spiro[naphthalene-2,3′-pyrrolidine]-6-carboxamide] | ≤ 100 nM |
| O=C(NO)c1ccc2c(c1)CC[C@@]1(CCN(c3ccccc3)C1=O)C2 [Compound I-29, (S)-N-hydroxy-2′-oxo-1′-phenyl-3,4-dihydro-1H-spiro[naphthalene-2,3′-pyrrolidine]-6-carboxamide] | ≤ 100 nM |
| O=C(NO)c1ccc2c(c1)CC[C@]1(CCN(Cc3cnc(O)s3)C1=O)C2 [Compound I-31, (R)-N-hydroxy-1′-((2-hydroxythiazol-5-yl)methyl)-2′-oxo-3,4-dihydro-1H-spiro[naphthalene-2,3′-pyrrolidine]-6-carboxamide] | ≤ 100 nM |
| CCCN1CC[C@]2(CCc3cc(C(=O)NO)ccc3C2)C1=O [Compound I-32, (R)-N-hydroxy-2′-oxo-1′-propyl-3,4-dihydro-1H-spiro[naphthalene-2,3′-pyrrolidine]-6-carboxamide] | ≤ 100 nM |
| O=C(NO)c1ccc2c(c1)CC[C@]1(CCN(CC3CCC3)C1=O)C2 [Compound I-33, (R)-1′-(cyclobutylmethyl)-N-hydroxy-2′-oxo-3,4-dihydro-1H-spiro[naphthalene-2,3′-pyrrolidine]-6-carboxamide] | ≤ 100 nM |
| COCCN1CC[C@]2(CCc3cc(C(=O)NO)ccc3C2)C1=O [Compound I-36, (R )-N-hydroxy-1′-(2-methoxyethyl)-2′-oxo-3,4-dihydro-1H-spiro[naphthalene-2,3′-pyrrolidine]-6-carboxamide] | ≤ 100 nM |
| O=C(NO)c1ccc2c(c1)CC[C@]1(CCN(Cc3ccccc3Cl)C1=O)C2 [Compound I-40, (R)-1′-(2-chlorobenzyl)-N-hydroxy-2′-oxo-3,4-dihydro-1H-spiro[naphthalene-2,3′-pyrrolidine]-6-carboxamide] | ≤ 100 nM |
| O=C(NO)c1ccc2c(c1)CC[C@]1(CCN(Cc3ccccc3OC(F)(F)F)C1=O)C2 [Compound I-41, (R)-N-hydroxy-2′-oxo-1′-(2-(trifluoromethoxy)benzyl)-3,4-dihydro-1H-spiro[naphthalene-2,3′-pyrrolidine]-6-carboxamide] | ≤ 100 nM |
| CC(C)n1c(CN2CC[C@]3(CCc4cc(C(=O)NO)ccc4C3)C2=O)nc2ccccc21 [Compound I-45] | ≤ 100 nM |

Continued, values first:

| IC50 | Structure (SMILES) |
| --- | --- |
| ≤ 100 nM | COCCn1c(CN2CC[C@@]3(CCc4cc(C(=O)NO)ccc4C3)C2=O)nc2ccccc21 [Compound I-23, (S)-N-hydroxy-1′-((1-(2-methoxyethyl)-1H-benzo[d]imidazol-2-yl)methyl)-2′-oxo-3,4-dihydro-1H-spiro[naphthalene-2,3′-pyrrolidine]-6-carboxamide] |
| ≤ 100 nM | CC(C)N1CC[C@@]2(CCc3cc(C(=O)NO)ccc3C2)C1=O [Compound I-25, (S)-N-hydroxy-1′-isopropyl-2′-oxo-3,4-dihydro-1H-spiro[naphthalene-2,3′-pyrrolidine]-6-carboxamide] |
| ≤ 100 nM | O=C(NO)c1ccc2c(c1)CC[C@]1(CCNC1=O)C2 [Compound I-27, (R)-N-hydroxy-2′-oxo-3,4-dihydro-1H-spiro[naphthalene-2,3′-pyrrolidine]-6-carboxamide] |
| ≤ 100 nM | O=C(NO)c1ccc2c(c1)CC[C@@]1(CCNC1=O)C2 [Compound I-28, (S)-N-hydroxy-2′-oxo-3,4-dihydro-1H-spiro[naphthalene-2,3′-pyrrolidine]-6-carboxamide] |
| ≤ 100 nM | O=C(NO)c1ccc2c(c1)CC[C@]1(CCN(Cc3cnc(Cl)s3)C1=O)C2 [Compound I-30, (R)-1′-((2-chlorothiazol-5-yl)methyl)-N-hydroxy-2′-oxo-3,4-dihydro-1H-spiro[naphthalene-2,3′-pyrrolidine]-6-carboxamide] |
| ≤ 100 nM | CC(C)CCN1CC[C@]2(CCc3cc(C(=O)NO)ccc3C2)C1=O [Compound I-34] |
| ≤ 100 nM | CC#CCN1CC[C@]2(CCc3cc(C(=O)NO)ccc3C2)C1=O [Compound I-35, (R)-1′-(but-2-yn-1-yl)-N-hydroxy-2′-oxo-3,4-dihydro-1H-spiro[naphthalene-2,3′-pyrrolidine]-6-carboxamide] |
| ≤ 100 nM | O=C(NO)c1ccc2c(c1)CC[C@]1(CCN(C/C=C/c3ccccc3)C1=O)C2 [Compound I-37, (R)-1′-cinnamyl-N-hydroxy-2′-oxo-3,4-dihydro-1H-spiro[naphthalene-2,3′-pyrrolidine]-6-carboxamide] |
| ≤ 100 nM | Cc1ccccc1CN1CC[C@]2(CCc3cc(C(=O)NO)ccc3C2)C1=O [Compound I-38, (R)-N-hydroxy-1′-(2-methylbenzyl)-2′-oxo-3,4-dihydro-1H-spiro[naphthalene-2,3′-pyrrolidine]-6-carboxamide] |
| ≤ 100 nM | O=C(NO)c1ccc2c(c1)CC[C@]1(CCN(Cc3ccccc3C(F)(F)F)C1=O)C2 [Compound I-39, (R)-N-hydroxy-2′-oxo-1′-(2-(trifluoromethyl)benzyl)-3,4-dihydro-1H-spiro[naphthalene-2,3′-pyrrolidine]-6-carboxamide] |
| ≤ 100 nM | O=C(NO)c1ccc2c(c1)CC[C@]1(CCN(Cc3ccc4nonc4c3)C1=O)C2 [Compound I-42, (R)-1′-(benzo[c][1,2,5]oxadiazol-5-ylmethyl)-N-hydroxy-2′-oxo-3,4-dihydro-1H-spiro[naphthalene-2,3′-pyrrolidine]-6-carboxamide] |
| ≤ 100 nM | O=C(NO)c1ccc2c(c1)CC[C@]1(CCN(CC(=O)N3CCOCC3)C1=O)C2 [Compound I-43, (R)-N-hydroxy-1′-(2-morpholino-2-oxoethyl)-2′-oxo-3,4-dihydro-1H-spiro[naphthalene-2,3′-pyrrolidine]-6-carboxamide] |
| ≤ 100 nM | COc1ccccc1CN1CC[C@]2(CCc3cc(C(=O)NO)ccc3C2)C1=O [Compound I-44, (R)-N-hydroxy-1′-(2-methoxybenzyl)-2′-oxo-3,4-dihydro-1H-spiro[naphthalene-2,3′-pyrrolidine]-6-carboxamide] |
| ≤ 100 nM | Cn1c(CN2CC[C@]3(CCc4cc(C(=O)NO)ccc4C3)C2=O)nc2ccccc21 [Compound I-46, (R)-N-hydroxy-1′-((1-methyl-1H-benzo[d]imidazol-2-yl)methyl)-2′-oxo-3,4-dihydro-1H-spiro[naphthalene-2,3′-pyrrolidine]-6-carboxamide] |
